The target in test [1] is full-length human RORγt (Homo sapiens (Human), UniProt P51449). Nature of the test: RORγt (full-length human) reporter assay, conditions A or B. As to conditions: for pIC50: HEK293T cells, read-out: RORγt (FL) Reporter Assay A or B, IC50; for inhibition at 6 µM: read-out: RORγt (FL) Reporter Assay A or B, % inhibition @ 6 μM, 6 μM compound concentration. It counts as cell-based. The method in brief: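 HEK293T cells transiently co-transfected (PEI) with GAL4-DBD–RORγt, GAL4-firefly luciferase and CMV-Renilla reporters; condition A 35,000 cells/well, 170.5 ng DNA/well; condition B 8750 cells/well, 42.6 ng DNA/well.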
Chain of full-length human RORγt (P51449 other isoform, or with tags, fused parts or gaps): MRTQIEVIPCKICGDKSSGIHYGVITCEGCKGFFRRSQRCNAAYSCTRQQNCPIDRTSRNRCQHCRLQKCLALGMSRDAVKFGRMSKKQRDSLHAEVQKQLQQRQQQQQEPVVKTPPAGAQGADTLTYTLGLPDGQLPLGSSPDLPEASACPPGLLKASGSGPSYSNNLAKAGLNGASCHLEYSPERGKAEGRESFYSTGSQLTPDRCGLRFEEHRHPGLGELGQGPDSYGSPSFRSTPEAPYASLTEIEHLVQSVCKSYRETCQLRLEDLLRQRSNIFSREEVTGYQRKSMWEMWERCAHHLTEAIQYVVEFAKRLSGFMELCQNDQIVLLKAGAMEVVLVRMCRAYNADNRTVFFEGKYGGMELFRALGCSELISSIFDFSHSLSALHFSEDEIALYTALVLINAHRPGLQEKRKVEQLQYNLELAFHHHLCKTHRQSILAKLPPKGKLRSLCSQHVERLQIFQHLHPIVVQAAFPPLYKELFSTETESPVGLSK
(A reporter such as luciferase makes a cellular process visible.)

The target in test [2] is human RORγt ligand binding domain (RORγt LBD) (Homo sapiens (Human), UniProt P51449). Nature of the test: RORγt ThermoFluor assay. The method in brief:
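Thermal shift of His-tagged human RORγt LBD (0.065 mg/mL) with 60 μM 1,8-ANS in 100 mM Hepes pH 7.0, 10 mM NaCl, 2.5 mM GSH, 0.002% Tween-20, heated at 1° C./min. Compounds in 1:2 series from a 10 mM DMSO stock; KD estimated from ΔTm using protein unfolding thermodynamics.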
(In general: In DSF a fluorescence change marks the thermal transition of the protein.)

The mark [3] stands for this setting: 3 μM compound concentration (*), read-out: RORγt (FL) Reporter Assay A or B, % inhibition.

This note sets out measurements from patent US11345666B2, “Phenyl and pyridinyl substituted imidazoles as modulators of RORγT” (Janssen Pharmaceutica NV, priority 2018, dated 2022).

pIC50, pKd: −log10 of the molar value. Read-outs that look alike come from different tables or passages of the source. Marks after values point to notes of the source that are not given here.

Chain of human RORγt ligand binding domain (RORγt LBD) (P51449 other isoform, or with tags, fused parts or gaps): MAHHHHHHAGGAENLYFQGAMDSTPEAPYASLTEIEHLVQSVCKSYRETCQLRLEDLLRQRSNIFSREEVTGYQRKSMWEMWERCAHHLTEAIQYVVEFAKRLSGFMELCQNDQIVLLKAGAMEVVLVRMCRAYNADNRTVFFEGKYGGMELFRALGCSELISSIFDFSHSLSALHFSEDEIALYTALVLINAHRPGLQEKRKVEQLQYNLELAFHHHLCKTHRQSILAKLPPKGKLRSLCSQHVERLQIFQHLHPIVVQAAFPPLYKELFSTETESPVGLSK

By pIC50 is commonly meant −log10 of the IC50, conventionally taken in molar units. The pKd is the Kd on a negative log10 scale, so that one unit is a factor of ten. A lower pKd goes with a high Kd. `CCc1nc(C(=O)NC[C@H]2CC[C@H](S(C)(=O)=O)CC2)c(Cl)n1-c1ccc(CC(C)(C)C(F)(F)F)cc1F` [Example 101, 5-Chloro-2-ethyl-1-(2-fluoro-4-(3,3,3-trifluoro-2,2-dimethylpropyl)phenyl)-N-(((1r,4r)-4-(methylsulfonyl)cyclohexyl)methyl)-1H-imidazole-4-carboxamide]: in test [1] (0.22 μM compound concentration (******), read-out: RORγt (FL) Reporter Assay A or B, % inhibition), the inhibition at 0.22 µM is 65%. Besides, in test [1], the pIC50 was 7.74. The same compound showed a pKd in test [2] of 8.40.
Regarding `CCc1nc(C(=O)NC[C@@H]2CC[C@@H](S(C)(=O)=O)C[C@H]2O)c(Cl)n1-c1ncc(CC(C(F)(F)F)C(F)(F)F)cc1OC(F)F` (stereo in doubt) [Example 65, 5-Chloro-1-(3-(difluoromethoxy)-5-(3,3,3-trifluoro-2-(trifluoromethyl)propyl)pyridin-2-yl)-2-ethyl-N-(((1S*,2R*,4R*)-2-hydroxy-4-(methylsulfonyl)cyclohexyl)methyl)-1H-imidazole-4-carboxamide], in test [1] (setting [3]), the inhibition at 3 µM came to 105%. Besides, the pIC50 in test [1] is 6.96. The compound also gave a pKd in test [2] of 7.55.
`Cc1nc(C(=O)NC[C@@H]2CC[C@@H](S(C)(=O)=O)C[C@H]2O)c(C#N)n1-c1ccc(CC(C)(C)C(F)(F)F)cc1OC(F)F` (single isomer, unassigned) [Example 57, 5-Cyano-1-(2-(difluoromethoxy)-4-(3,3,3-trifluoro-2,2-dimethylpropyl)phenyl)-N-(((1S*,2R*,4R*)-2-hydroxy-4-(methylsulfonyl)cyclohexyl)methyl)-2-methyl-1H-imidazole-4-carboxamide]: in test [1], the pIC50 is 7.40. Besides, the inhibition at 3 µM in test [1] (read-out: RORγt (FL) Reporter Assay A or B, % inhibition, 3 μM compound concentration (*)) was 98%. This compound also gave a pKd in test [2] of 7.66.
For the compound `CCc1nc(C(=O)NC[C@H]2CC[C@H](S(C)(=O)=O)CC2)c(C)n1-c1ncc(CC(C)(C)C(F)(F)F)cc1OC(F)F` [Example 49, 1-(3-(Difluoromethoxy)-5-(3,3,3-trifluoro-2,2-dimethylpropyl)pyridin-2-yl)-2-ethyl-5-methyl-N-(((1r,4r)-4-(methylsulfonyl)cyclohexyl)methyl)-1H-imidazole-4-carboxamide], in test [1], the pIC50 was 7.85 and the inhibition at 6 µM was 94%. The same compound had a pKd in test [2] of 8.24.
Turning to `CCc1nc(C(=O)NC[C@H]2CC[C@H](S(C)(=O)=O)CC2)c(Cl)n1-c1ccc(CC(C)C(F)(F)F)cc1OC` (single isomer, unassigned) [Example 5, 5-Chloro-2-ethyl-1-((1R*)-2-methoxy-4-(3,3,3-trifluoro-2-methylpropyl)phenyl)-N-(((1r,4R)-4-(methylsulfonyl)cyclohexyl)methyl)-1H-imidazole-4-carboxamide], the “RORγt (FL) Reporter Assay A or B, % inhibition” value in test [1] (0.67 μM compound concentration (****)) is given as 43**** %. In addition, the pIC50 in test [1] was 6.59. The compound also gave a pKd in test [2] of 5.89.
For `CCc1nc(C(=O)NC[C@]2(O)CC[C@@H](S(C)(=O)=O)CC2)c(F)n1-c1ccc(CCC(F)(F)F)cc1OC` [Example 14, 2-Ethyl-5-fluoro-N-(((1s,4s)-1-hydroxy-4-(methylsulfonyl)cyclohexyl)methyl)-1-(2-methoxy-4-(3,3,3-trifluoropropyl)phenyl)-1H-imidazole-4-carboxamide], in test [1], the pIC50 is 6.49 and the inhibition at 6 µM stood at 83%. The compound further gave a pKd in test [2] of 7.08.
For `CCc1nc(C(=O)NC[C@]2(O)CC[C@@H](S(C)(=O)=O)C[C@H]2O)c(Cl)n1-c1ncc(CC(C)(C)C(F)(F)F)cc1OC(F)F` (stereo in doubt) [Example 60, 5-Chloro-1-(3-(difluoromethoxy)-5-(3,3,3-trifluoro-2,2-dimethylpropyl)pyridin-2-yl)-N-(((1R*,2R*,4R*)-1,2-dihydroxy-4-(methylsulfonyl)cyclohexyl)methyl)-2-ethyl-1H-imidazole-4-carboxamide], the inhibition at 3 µM in test [1] (setting [3]) was 86%. The pIC50 in test [1] was 6.72. In addition, the pKd in test [2] was 7.47.
For the compound `CCc1nc(C(=O)NC[C@H]2CC[C@H](S(C)(=O)=O)CC2)c(F)n1-c1ccc(CCC(F)(F)F)cc1OC` [Example 13, 2-Ethyl-5-fluoro-1-(2-methoxy-4-(3,3,3-trifluoropropyl)phenyl)-N-(((1r,4r)-4-(methylsulfonyl)cyclohexyl)methyl)-1H-imidazole-4-carboxamide], in test [1], the pIC50 was 6.85 and the inhibition at 6 µM stood at 95%. This compound gave a pKd in test [2] of 7.60.
Taken in the same sequence, the figures for `CCc1nc(C(=O)NC[C@H]2CC[C@H](S(C)(=O)=O)CC2)c(C#N)n1-c1ccc(CCC(F)(F)F)cc1OC(F)(F)F` [Example 115, 5-Cyano-2-ethyl-N-(((1r,4r)-4-(methylsulfonyl)cyclohexyl)methyl)-1-(2-(trifluoromethoxy)-4-(3,3,3-trifluoropropyl)phenyl)-1H-imidazole-4-carboxamide] were 6.72, 74% and 7.00.
`CCc1nc(C(=O)NC[C@]2(O)CC[C@@H](S(C)(=O)=O)CC2)cn1-c1ccc(C[C@@H](C)C(F)(F)F)cc1OC` (single isomer, unassigned) [Example 17, 2-Ethyl-N-(((1s,4S)-1-hydroxy-4-(methylsulfonyl)cyclohexyl)methyl)-1-(2-methoxy-4-((R*)-3,3,3-trifluoro-2-methylpropyl)phenyl)-1H-imidazole-4-carboxamide]: in test [1] (2 μM compound concentration (**), read-out: RORγt (FL) Reporter Assay A or B, % inhibition), the inhibition at 2 µM came to 74%. Moreover, the pIC50 in test [1] was 6.40. Further, the pKd in test [2] was 7.12.
Consider `CCc1nc(C(=O)NC[C@]2(O)CC[C@@H](S(C)(=O)=O)CC2)c(Cl)n1-c1ncc(CC(C)(C)C(F)(F)F)cc1OC(F)F` [Example 46, 5-Chloro-1-(3-(difluoromethoxy)-5-(3,3,3-trifluoro-2,2-dimethylpropyl)pyridin-2-yl)-2-ethyl-N-(((1s,4s)-1-hydroxy-4-(methylsulfonyl)cyclohexyl)methyl)-1H-imidazole-4-carboxamide], for which, in test [1], the pIC50 is 7.55 and the inhibition at 6 µM came to 97%. The compound also gave a pKd in test [2] of 8.51.
Taken in the same sequence, the figures for `CCc1nc(C(=O)NC[C@H]2CC[C@H](S(C)(=O)=O)CC2)c(F)n1-c1ccc(CC(C)C(F)(F)F)cc1OC` (stereo partly drawn) [Example 15, 2-Ethyl-5-fluoro-1-(2-methoxy-4-(3,3,3-trifluoro-2-methylpropyl)phenyl)-N-(((1r,4r)-4-(methylsulfonyl)cyclohexyl)methyl)-1H-imidazole-4-carboxamide] were 7.26, 103% and 8.41.
As to `CCc1nc(C(=O)NC[C@]2(O)CC[C@@H](S(C)(=O)=O)CC2)c(Cl)n1-c1ccc(CC(C)(C)C(F)(F)F)c(OC)c1` [Example 43, 5-Chloro-2-ethyl-N-(((1s,4s)-1-hydroxy-4-(methylsulfonyl)cyclohexyl)methyl)-1-(3-methoxy-4-(3,3,3-trifluoro-2,2-dimethylpropyl)phenyl)-1H-imidazole-4-carboxamide], the inhibition at 0.67 µM in test [1] (0.67 μM compound concentration (****), read-out: RORγt (FL) Reporter Assay A or B, % inhibition) stood at 86%. In addition, in test [1], the pIC50 is 8.49. The same compound had a pKd in test [2] of 8.66.
Consider `CCc1nc(C(=O)NC[C@]2(C#N)CC[C@@H](S(C)(=O)=O)CC2)c(C)n1-c1ncc(CC(C)(C)C(F)(F)F)cc1OC` [Example 128, N-(((1s*,4s*)-1-Cyano-4-(methylsulfonyl)cyclohexyl)methyl)-2-ethyl-1-(3-methoxy-5-(3,3,3-trifluoro-2,2-dimethylpropyl)pyridin-2-yl)-5-methyl-1H-imidazole-4-carboxamide], for which, in test [1], the pIC50 is 6.51 and the inhibition at 6 µM amounted to 105%. The same compound had a pKd in test [2] of 7.43.
